Assay results: patent publication US9580399B2, “Geranyl flavonoid derivative with improved water solubility, a method for preparing the same, and a method for treating cancer using the same” (KOREA RESEARCH INSTITUTE OF BIOSCIENCE AND BIOTECHNOLOGY, priority 2014, dated 2017)
Converted amounts (≈) assume the structure as drawn.

What was measured:
[1] = Physicochemical properties: solubility; settings: for Solubility: Insolubility: solvents in which insoluble; for Solubility: Fusibility: solvents in which soluble
STAT3 = biological target: T1, STAT3 (Homo sapiens, UniProt P40763); experiment: Western blotting of STAT3 expression and phosphorylation in DU-145 cells; assay type: cell-based; settings: DU-145, 5, 10 or 20 μM, 24 hours
T1 construct: the prostate cancer cell line DU-145 was distributed in three 60-mm plates; endogenous in cells; host or cells: DU-145 prostate cancer cells
Method: To investigate whether or not the novel synthesized geranyl flavonoid derivative of the present invention, CG-901-2, had the activity of inhibiting STAT3 protein activity by inhibiting STAT3 phosphorylation, Western blotting was performed to measure the expression of the phosphorylated STAT3. Particularly, the prostate cancer cell line DU-145 was distributed in three 60-mm plates containing 10% FBS (fetal bovine serum) medium at the density of 80,000 cells/plate, followed by culture in a 37° C. 5% CO2 incubator for 24 hours. Upon completion of the culture, the CG-901-2 compound prepared in Example <1-2> was treated to each plate at the concentration of 5, 10, or 20 μM. The negative control was treated with 0.25% DMSO, followed by culture for 24 hours. Then, the medium was discarded from each plate. The plate was then washed with PBS, to which 200 μl of Ripa lysis buffer was added. The cells attached on the plate were collected by using a scraper. […] The lysate mixture was placed in a 96-well plate, and […] was measured using ELISA reader in order to quantify the protein. After the quantification, the lysate containing the equal amount of protein was prepared, which was mixed with lysis buffer and 5× dye, leading to the preparation of a loading sample. […]

Mcl-1 = experiment: Western blotting of STAT3 target protein expression in DU-145 cells; assay type: cell-based, human; settings: DU-145, 20 μM
Method: (§1) To investigate the changes of the expression of STAT3 target genes according to the decrease of STAT3 protein phosphorylation caused by the treatment of geranyl flavonoid derivative CG901-2, the expressions of cyclin A that is well known as a STAT3 target protein, Mcl-1 (Induced myeloid leukemia cell differentiation protein-1), and survivin were examined. Particularly, DU-145 cells were treated with the compound CG-901-2 at the concentration of 20 μM by the same manner as described in Example <2-1>, followed by culture. Western blotting was performed to investigate the expressions of AD (cyclin A), Mcl-1, and survivin. β-actin was used as the control to compare the expression levels.

cyclin A = experiment: as above; assay type: cell-based, human; settings: DU-145, 20 μM
Method: as §1

survivin = experiment: as above; assay type: cell-based, human; settings: DU-145, 20 μM
Method: as §1

[2] = Cancer cell growth inhibition (WST-1); assay type: cell-based; settings: Homo sapiens; Prostate cancer, 24 hours
Method: (§2) To investigate whether or not the geranyl flavonoid derivative of the present invention had cancer cell growth inhibiting effect, various human cancer cell lines were treated with CG-901-2 and then cancer cell growth was observed. Particularly, the human breast cancer cell lines MDA-MB-231 and MDA-MB-468, the prostate cancer cell line DU-145, the colorectal cancer cell line HCT116, the pancreatic cancer cell line AsPC-3, or the colon cancer cell line SW620 was distributed in 10% FBS medium, followed by culture in a 37° C. 5% CO2 incubator. The attached grown cells were collected by using trypsin-EDTA. The obtained cells were counted by hematocytometer, which were distributed in 96-well plate at the density of 5,000 cells/well (MDA-MB-231, MDA-MB-468, and DU-145) or at the density of 7,000 cells/well (HCT116 and SW620). 10% FBS medium was added to the plate, followed by culture in a 37° C. 5% CO2 incubator. 24 hours later, the cells were treated with the compound CG-901-2 prepared in Example <1-2> dissolved in DMSO at the concentration of 20 or 50 μg/ml. The negative control was treated with 0.1% DMSO. The cells were further cultured for 24 more hours. Then, 10 μl of the coloring agent, 2-[4-iodophenyl]-3-[4-nitrophenyl]-5-[2,4-disulfophenyl]-2H-tetrazolium (monosodium salt, WST-1; Roche) was treated to the cultured cells, followed by culture for 2 hours. Then, OD450 was measured with ELISA reader (Bio-Rad) to investigate the time-dependent cancer cell growth rate. For 24 hours from the treatment of the compound, the concentration of the compound that allowed only 50% of cancer cell population to survive was calculated based on the above growth rate, and the result was defined as GI50.

HCT116 = experiment: Cancer cell growth inhibition (WST-1); assay type: cell-based; settings: Homo sapiens, HCT-116; Colorectal cancer, 24 hours
Method: as §2

MDA-MB-468 = experiment: Cancer cell growth inhibition (WST-1); assay type: cell-based; settings: Homo sapiens, Breast cancer, 24 hours
Method: as §2

SW620 = experiment: Cancer cell growth inhibition (WST-1); assay type: cell-based; settings: Homo sapiens, SW-620; Colon cancer, 24 hours
Method: as §2

[3] = system: various human cancer cell lines; experiment: Cancer cell growth inhibition (WST-1), all cell lines together; assay type: cell-based
Method: as §2, with “Then, 10 μl of the coloring agent, 2-[4-iodophenyl]-3-[4-nitrophenyl]-5-[2,4-disulfophenyl]-2H-tetrazolium (monosodium salt, WST-1; Roche) was treated to the cultured cells, followed by culture for 2 hours.” left out, “For 24 hours from the treatment of the compound, the concentration of the compound that allowed only 50% of cancer cell population to survive was calculated based on the above growth rate, and the result was defined as GI50.” left out

DU-145 tumor = experiment: In vivo tumor growth inhibition in prostate cancer mouse model; settings: 50 mg/kg oral, once a day, 10 times, compared with negative control
Method: Particularly, the human originated prostate cancer cell line DU-145 was inoculated in the serum-free medium, followed by culture in a 37° C. 5% CO2 incubator. The cultured DU-145 cells were prepared at the density of 3×10^7 cells/ml. Each BALB/c specific pathogen free female mouse (Nara Biotech Co.) at 6 weeks was administered with the cells at the dose of 9×10^6 cells/0.3 ml via subcutaneous injection in the auxiliary region between the right shoulder and breast wall, leading to the cancer cell transplantation. After the transplantation, the mouse was raised for 25 days until the generated tumor induced by the transplanted cancer cells grew to a measurable size. As a result, the prostate cancer mouse model was constructed. The tumor induced by the transplanted cancer cells was measured in three dimensions which were length, width, and height of the tumor, by using a vernier caliper, […], and the size of the tumor was calculated by the below mathematical formula 1. […] The tumor size was measured on day 0, day 10, day 14, day 16, day 18, day 21, day 23, and day 25. […] The size and weight of the control tumor was measured and compared with the above.

T1 sequence (P40763 whole entry): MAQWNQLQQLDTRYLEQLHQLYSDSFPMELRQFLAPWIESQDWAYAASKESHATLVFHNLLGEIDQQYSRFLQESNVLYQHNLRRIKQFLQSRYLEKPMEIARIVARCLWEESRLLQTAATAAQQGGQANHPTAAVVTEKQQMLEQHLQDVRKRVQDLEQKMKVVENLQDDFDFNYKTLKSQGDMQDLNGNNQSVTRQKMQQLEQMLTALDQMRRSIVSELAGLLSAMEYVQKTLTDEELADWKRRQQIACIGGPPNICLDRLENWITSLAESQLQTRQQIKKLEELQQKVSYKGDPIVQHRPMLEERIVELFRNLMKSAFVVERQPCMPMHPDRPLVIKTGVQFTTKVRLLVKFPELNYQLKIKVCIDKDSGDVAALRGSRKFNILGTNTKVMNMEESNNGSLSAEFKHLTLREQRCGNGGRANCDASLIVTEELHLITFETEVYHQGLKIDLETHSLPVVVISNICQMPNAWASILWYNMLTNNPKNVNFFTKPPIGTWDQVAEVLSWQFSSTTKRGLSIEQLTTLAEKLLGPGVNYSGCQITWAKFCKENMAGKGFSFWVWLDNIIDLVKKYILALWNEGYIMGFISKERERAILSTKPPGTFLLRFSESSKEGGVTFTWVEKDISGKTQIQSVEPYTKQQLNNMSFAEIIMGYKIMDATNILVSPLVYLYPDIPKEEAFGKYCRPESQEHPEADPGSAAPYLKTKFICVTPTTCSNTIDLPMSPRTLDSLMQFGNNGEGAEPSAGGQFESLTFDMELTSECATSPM

Row | SMILES | Solubility: Insolubility [1] | Solubility: Fusibility [1] | expression of STAT3 (STAT3) | phosphorylation of STAT3 (STAT3) | expression of Mcl-1 (Mcl-1) | expression of cyclin A (cyclin A) | expression of survivin (survivin) | GI50 [2] | GI50 (HCT116) | GI50 (MDA-MB-468) | GI50 (SW620) | GI50 ([3]; Homo sapiens, MDA-MB-231, MDA-MB-468, DU-145, HCT116, AsPC-3, SW620, read-out: GI50 concentration range of each cancer cell line) | cancer cell growth rate ([3]; compared with negative control) | tumor size growth inhibited (DU-145 tumor) | weight of the tumor reduced (DU-145 tumor; day 25) | solubility ([1]; water)
1 | CC(C)=CCC[C@]1(C)C=Cc2c(CCC(=O)c3ccc(OCCN(C)C)cc3O)ccc(O)c2O1.Cl [CG-901-2, (R)-2-(3-hydroxy-4-(3-(8-hydroxy-2-methyl-2-(4-methylpent-3-enyl)-2H-chromen-5-yl)propanoyl)phenoxy)-N,N-dimethylethanaminium chloride] | Hexane, Ethylacetate | Alcohol, H2O | not changed | reduced CG-901-2 dose-dependently | down-regulated | down-regulated | down-regulated | 20 µM | 25 µM | 30 µM | 50 µM | 15 to 30 µM | reduced over the time | approximately 38.8% | 40.5% | –
2 | CC(C)=CCC[C@]1(C)C=Cc2c(CCC(=O)c3ccc(OCCN(C)C)cc3O)ccc(O)c2O1 [CG-901-1, (R)-1-(4-(2-(dimethylamino)ethoxy)-2-hydroxyphenyl)-3-(8-hydroxy-2-methyl-2-(4-methylpent-3-enyl)-2H-chromen-5-yl)propan-1-one] | Hexane | Alcohol, DMSO | – | – | – | – | – | – | – | – | – | – | – | – | – | 300 µM (≈ 144 µg/mL)
